Reference: US20240158348A1, “HERBICIDAL CYCLIC AMIDES N-SUBSTITUTED WITH A HALOALKYLSULFONYLANILIDE GROUP” (FMC Corporation, priority 2021, published 2024)

Experiments:
Format in all cases: in vivo
[1] = system: oat, wild (wild oat, Avena fatua); test: Test C postemergence, wild oat; settings: for Oat, Wild plant response rating: 31 g ai/ha Postemergence, visual injury, 0 to 100 scale (0 no effect, 100 complete control); for Plant response rating (0 to 100 scale), Oat, Wild: 125 g ai/ha Postemergence, 0 is no effect, 100 is complete control
[2] = system: wheat (Triticum aestivum); test: Test C postemergence, wheat; settings: for Wheat plant response rating: visual injury, 0 to 100 scale (0 no effect, 100 complete control); for Plant response rating (0 to 100 scale), Wheat: 0 is no effect, 100 is complete control
Procedure, shortened: (§1)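 Herbicidal effect was estimated visually on a 0–100 scale 10 or 12 days after spraying. Formulation: non-phytotoxic solvent mixture with surfactant. Timing: directed soil spray after sowing, or postemergence on seedlings bearing one or two leaves.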

[3] = system: blackgrass (Alopecurus myosuroides); test: Test C preemergence, blackgrass; settings: 0 is no effect, 100 is complete control
Procedure, shortened: as §1

[4] = system: foxtail, giant (giant foxtail, Setaria faberi); test: Test C preemergence, giant foxtail; settings: 0 is no effect, 100 is complete control
Procedure, shortened: as §1

[5] = system: oat, wild (wild oat, Avena fatua); test: Test C preemergence, wild oat; settings: 0 is no effect, 100 is complete control
Procedure, shortened: as §1

[6] = system: ragweed (common ragweed, Ambrosia artemisiifolia); test: Test C preemergence, ragweed; settings: 0 is no effect, 100 is complete control
Procedure, shortened: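 Injury is given as a visual 0–100 rating, where 100 is complete control, made against untreated plants after 10 or 12 greenhouse days. Galium received a postemergence spray at the one- to two-leaf stage (2–10 cm tall). Corn, ragweed and goosegrass seeds in loam-sand blend received a directed preemergence soil spray; test chemicals were formulated in a surfactant-containing non-phytotoxic solvent.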

[7] = system: ducksalad (Heteranthera limosa); test: Test D flooded paddy test, ducksalad; design: key: 0 = no effect, 100 = complete control; settings: 250 g ai/ha, Flood; applied to paddy water at 2-leaf stage; visual rating after 13 days; scale 0 (no effect) to 100 (complete control)
Procedure, shortened: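 Pots holding 2-leaf-stage plants were flooded 3 cm deep and dosed via the water, which stayed at that level. After 13 greenhouse days, injury was scored visually against untreated controls, 0 (none) to 100 (complete control); a dash marks no test result.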

soybean (Glycine max) = test: Test C postemergence, soybean; settings: for Soybean plant response rating: visual injury, 0 to 100 scale (0 no effect, 100 complete control); for Plant response rating (0 to 100 scale), Soybean: 0 is no effect, 100 is complete control
[8] = system: pigweed, palmer (palmer amaranth, Amaranthus palmeri); test: Test C preemergence, palmer amaranth; settings: 0 is no effect, 100 is complete control
Procedure, shortened: as §1

| SMILES | Oat, Wild plant response rating [1] | Plant response rating (0 to 100 scale), Oat, Wild [1] | Wheat plant response rating ([2]; 31 g ai/ha Postemergence) | Plant response rating (0 to 100 scale), Wheat ([2]; 125 g ai/ha Postemergence) | Plant response rating (0 to 100 scale), Blackgrass ([3]; 31 g ai/ha Preemergence) | Plant response rating (0 to 100 scale), Blackgrass ([3]; 125 g ai/ha Preemergence) | Plant response rating (0 to 100 scale), Foxtail, Giant ([4]; 31 g ai/ha Preemergence) | Plant response rating (0 to 100 scale), Foxtail, Giant ([4]; 125 g ai/ha Preemergence) | Plant response rating (0 to 100 scale), Oat, Wild ([5]; 31 g ai/ha Preemergence) | Plant response rating (0 to 100 scale), Oat, Wild ([5]; 125 g ai/ha Preemergence) | Plant response rating (0 to 100 scale), Ragweed ([6]; 31 g ai/ha Preemergence) | Plant response rating (0 to 100 scale), Ragweed ([6]; 125 g ai/ha Preemergence) | Plant response rating, Ducksalad [7] | Soybean plant response rating (soybean (Glycine max); 31 g ai/ha Postemergence) | Plant response rating (0 to 100 scale), Soybean (soybean (Glycine max); 125 g ai/ha Postemergence) | Plant response rating (0 to 100 scale), Pigweed, Palmer ([8]; 31 g ai/ha Preemergence) | Plant response rating (0 to 100 scale), Pigweed, Palmer ([8]; 125 g ai/ha Preemergence) | Wheat plant response rating ([2]; 125 g ai/ha Postemergence) | Soybean plant response rating (soybean (Glycine max); 125 g ai/ha Postemergence) |
| --- | --- | --- | --- | --- | --- | --- | --- | --- | --- | --- | --- | --- | --- | --- | --- | --- | --- | --- | --- |
| Cc1cc(C)c(N2CCC(O)C2=O)cc1NS(=O)(=O)C(F)(F)F (stereo not drawn) [Compound 14] | 30 | 60 | 60 | 60 | 60 | 90 | 80 | 100 | 10 | 60 | 20 | 60 | 65 | 80 | 80 | 90 | 100 |  |  |
| COC(=O)N(c1cc(N2CCC(OC3CC3)C2=O)c(C)cc1C)S(=O)(=O)C(F)(F)F (stereo not drawn) [Compound 16] | 0 | 0 | 0 | 0 | 0 | 0 | 0 | 0 | 0 | 0 | 0 | 0 | 0 | 40 | 60 | 0 | 0 |  |  |
| Cc1cc(C)c(N(C(=O)OC(C)C)S(=O)(=O)C(F)(F)F)cc1N1CCC(OC2CC2)C1=O (stereo not drawn) [Compound 18] | 0 | 0 | 0 | 0 | 0 | 0 | 0 | 0 | 0 | 0 | 0 | 0 | 0 | 50 | 80 | 0 | 20 |  |  |
| CCOC(=O)N(c1cc(N2CCC(OC3CC3)C2=O)c(C)cc1C)S(=O)(=O)C(F)(F)F (stereo not drawn) [Compound 19] | 0 | 30 | 0 | 10 | 0 | 40 | 0 | 10 | 0 | 40 | 0 | 10 | 0 | 80 | 80 | 20 | 60 |  |  |
| Cc1cc(C)c(N2CCC(OCC3CC3)C2=O)cc1NS(=O)(=O)C(F)(F)F (stereo not drawn) [Compound 22] | 20 | 40 | 50 | 60 | 50 | 90 | 100 | 100 | 90 | 100 | 50 | 100 | 90 | 60 | 70 | 100 | 100 |  |  |
| Cc1c(NS(=O)(=O)C(F)(F)F)cc(N2CCC(OC3CCC3)C2=O)c(C)c1F (stereo not drawn) [Compound 25] | 0 | 20 | 50 |  | 80 | 90 | 100 | 100 | 40 | 90 | 90 | 100 | 75 | 100 |  | 100 | 100 | 60 | 100 |
